Results published in patent US10941157B2, “Pesticidal compositions and uses thereof” (Gilead Apollo, LLC, priority 2015, dated 2021).
Values after ≈ are worked out from the molar mass of the structure shown. Where two headings read alike, the source gives them in different places.

Experiments:
Format in all cases: cell-based
[1] = system: Fusarium moniliforme (Fm); assay: In vitro pathogen growth inhibition assay, Fm; settings: Fusarium verticillioides
Summary of the method: (§1)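 Spores in 17% V8 liquid medium, or 1.5 mm Rs mycelial plugs in ¼ PDB, incubated with compound; final concentration checked by OD600 for precipitation. OD readings at 24 and 48 h, blank-subtracted, plus visual ratings; value is concentration giving ≥90% growth inhibition.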

Diplodia maydis (Dm) = assay: In vitro pathogen growth inhibition assay, Dm; settings: Stenocarpella maydis, 48 h
Summary of the method: (§2)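 Value reported is the compound concentration reaching ≥90% growth inhibition, from OD readings at 24 and 48 h after blank subtraction, confirmed visually. Inoculum was spores diluted in 17% V8 medium, except Rs, using 1.5 mm mycelial plugs in ¼ PDB; actual compound concentration corrected via OD600.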

Septoria tritici (St) = assay: In vitro pathogen growth inhibition assay, St; settings: Zymoseptoria tritici, 48 h
Summary of the method: as §1

Botrtyis cinerea (Bc) = assay: In vitro pathogen growth inhibition assay, Bc; settings: 48 h
Summary of the method: as §1

[2] = system: Phytophthora capsici (Pc); assay: In vitro pathogen growth inhibition assay, Pc; settings: 48 h
Summary of the method: as §2

Rhizoctonia solani (Rs) = assay: In vitro pathogen growth inhibition assay, Rs (mycelial plugs); settings: Rhizoctonia solani, 48 h, mycelial plugs
Summary of the method: as §2

[3] = system: Collectotrichum graminicola (Cg); assay: In vitro pathogen growth inhibition assay, Cg; settings: 48 h
Summary of the method: as §1

[4] = system: Fusarium virguliforme (Fv); assay: In vitro pathogen growth inhibition assay, Fv
Summary of the method: as §2

[5] = ≥90% inhibition, 48 hours vs 2% DMSO control, read-out: Compound Concentration (ppm) sufficient for ≥90% inhibition of growth, Fm
[6] = ≥90% inhibition, 48 hours vs 2% DMSO control, read-out: Compound Concentration (ppm) sufficient for ≥90% inhibition of growth, Dm
[7] = ≥90% inhibition, 48 hours vs 2% DMSO control, read-out: Compound Concentration (ppm) sufficient for ≥90% inhibition of growth, St
[8] = ≥90% inhibition, 48 hours vs 2% DMSO control, read-out: Compound Concentration (ppm) sufficient for ≥90% inhibition of growth, Bc
[9] = ≥90% inhibition, 48 hours vs 2% DMSO control, read-out: Compound Concentration (ppm) sufficient for ≥90% inhibition of growth, Pc
[10] = ≥90% inhibition, 48 hours vs 2% DMSO control, read-out: Compound Concentration (ppm) sufficient for ≥90% inhibition of growth, Rs
[11] = ≥90% inhibition, 48 hours vs 2% DMSO control, read-out: Compound Concentration (ppm) sufficient for ≥90% inhibition of growth, Cg
[12] = ≥90% inhibition, 48 hours vs 2% DMSO control, read-out: Compound Concentration (ppm) sufficient for ≥90% inhibition of growth, Fv
[13] = ≥90% growth inhibition, 48 hours, vs 2% DMSO control, read-out: Compound Concentration (ppm) sufficient for ≥90% inhibition of Fm
[14] = ≥90% growth inhibition, 48 hours, vs 2% DMSO control, read-out: Compound Concentration (ppm) sufficient for ≥90% inhibition of Dm
[15] = ≥90% growth inhibition, 48 hours, vs 2% DMSO control, read-out: Compound Concentration (ppm) sufficient for ≥90% inhibition of St
[16] = ≥90% growth inhibition, 48 hours, vs 2% DMSO control, read-out: Compound Concentration (ppm) sufficient for ≥90% inhibition of Bc
[17] = ≥90% growth inhibition, 48 hours, vs 2% DMSO control, read-out: Compound Concentration (ppm) sufficient for ≥90% inhibition of Pc
[18] = ≥90% growth inhibition, 48 hours, vs 2% DMSO control, read-out: Compound Concentration (ppm) sufficient for ≥90% inhibition of Rs
[19] = ≥90% growth inhibition, 48 hours, vs 2% DMSO control, read-out: Compound Concentration (ppm) sufficient for ≥90% inhibition of Cg
[20] = ≥90% growth inhibition, 48 hours, vs 2% DMSO control, read-out: Compound Concentration (ppm) sufficient for ≥90% inhibition of Fv

For `CCOC(=O)C(C)(C)n1c(=O)c2c(C)c(-n3nccn3)sc2n(C[C@H](OCCO)c2cc(F)ccc2OC)c1=O` [Compound I-085], which IC90 [1, 5] is on record?
Its IC90 is 0.08 µg/mL (≈ 0.139 µM).

And the IC90 (Diplodia maydis (Dm); [6])?
Its IC90 is 0.4 µg/mL (≈ 0.695 µM).

What about the IC90 (Septoria tritici (St); [7]) of the same compound?
Its IC90 is at least 10 µg/mL.

And the IC90 (Botrtyis cinerea (Bc); [8])?
Its IC90 is over 0.08 µg/mL.

And the IC90 [2, 9]?
Its IC90 is over 50 µg/mL.

And the IC90 (Rhizoctonia solani (Rs); [10])?
Its IC90 is 0.08 µg/mL (≈ 0.139 µM).

And the IC90 [3, 11]?
Its IC90 is 0.4 µg/mL (≈ 0.695 µM).

What about the IC90 [4, 12] of the same compound?
Its IC90 is 0.4 µg/mL (≈ 0.695 µM).

What does the source list for `CCOC(=O)c1ccc(F)cc1[C@H](Cn1c(=O)n(C(C)(C)C(=O)NC(C)C)c(=O)c2c(C)c(-n3nccn3)sc21)OCCC#N` [Compound I-335]?
IC90 [1, 13]: 2 µg/mL (≈ 3.13 µM); IC90 (Diplodia maydis (Dm); [14]): 50 µg/mL (≈ 78.2 µM); IC90 (Septoria tritici (St); [15]): > 50 µg/mL; IC90 (Botrtyis cinerea (Bc); [16]): 10 µg/mL (≈ 15.6 µM); IC90 [2, 17]: > 50 µg/mL; IC90 (Rhizoctonia solani (Rs); [18]): 10 µg/mL (≈ 15.6 µM); IC90 [3, 19]: 50 µg/mL (≈ 78.2 µM); IC90 [4, 20]: 2 µg/mL (≈ 3.13 µM)

How did the IC90 [1, 13] turn out when `Cc1c(-n2nccn2)sc2c1c(=O)n(C(C)(C)C(=O)NC(C)C)c(=O)n2CCc1cc(F)ccc1OC(C)C` [Compound I-338] was run?
The IC90 was 0.08 µg/mL (≈ 0.144 µM).

And the IC90 (Diplodia maydis (Dm); [14])?
Its IC90 is 2 µg/mL (≈ 3.59 µM).

What about the IC90 (Septoria tritici (St); [15]) of the same compound?
Its IC90 is over 50 µg/mL.

What about the IC90 (Botrtyis cinerea (Bc); [16]) of the same compound?
The IC90 was 2 µg/mL (≈ 3.59 µM).

And the IC90 [2, 17]?
The IC90 was over 50 µg/mL.

What about the IC90 (Rhizoctonia solani (Rs); [18]) of the same compound?
The IC90 was 10 µg/mL (≈ 18 µM).

And the IC90 [3, 19]?
The IC90 was 10 µg/mL (≈ 18 µM).

What about the IC90 [4, 20] of the same compound?
Its IC90 is 0.08 µg/mL (≈ 0.144 µM).

How did the IC90 [1, 5] turn out when `CCNC(=O)C(C)(C)n1c(=O)c2c(C)c(-n3nccn3)sc2n(C[C@H](OCC(C)C)c2cc(F)ccc2OC)c1=O` [Compound I-025] was run?
The IC90 was 0.08 µg/mL (≈ 0.136 µM).

What about the IC90 (Diplodia maydis (Dm); [6]) of the same compound?
Its IC90 is 0.4 µg/mL (≈ 0.682 µM).

And the IC90 (Septoria tritici (St); [7])?
The IC90 was over 10 µg/mL.

What about the IC90 (Botrtyis cinerea (Bc); [8]) of the same compound?
The IC90 was 0.4 µg/mL (≈ 0.682 µM).

What about the IC90 [2, 9] of the same compound?
Its IC90 is over 50 µg/mL.

What about the IC90 (Rhizoctonia solani (Rs); [10]) of the same compound?
The IC90 was 0.4 µg/mL (≈ 0.682 µM).

And the IC90 [3, 11]?
Its IC90 is 0.4 µg/mL (≈ 0.682 µM).

And the IC90 [4, 12]?
Its IC90 is 0.4 µg/mL (≈ 0.682 µM).

Which results are given for `CCNC(=O)C(C)(C)n1c(=O)c2c(C)c(-n3nccn3)sc2n(C[C@H](OC(C)C)c2cc(F)ccc2OC)c1=O` [Compound I-019]?
IC90 [1, 5]: 0.08 µg/mL (≈ 0.14 µM); IC90 (Diplodia maydis (Dm); [6]): ≥ 0.4 µg/mL; IC90 (Septoria tritici (St); [7]): > 10 µg/mL; IC90 (Botrtyis cinerea (Bc); [8]): ≥ 0.4 µg/mL; IC90 [2, 9]: > 50 µg/mL; IC90 (Rhizoctonia solani (Rs); [10]): 0.08 µg/mL (≈ 0.14 µM); IC90 [3, 11]: ≥ 0.4 µg/mL; IC90 [4, 12]: 0.4 µg/mL (≈ 0.698 µM)

What does the source list for `CCOC(=O)c1sc2c(c1C)c(=O)n(C(C)(C)C(=O)N1CCCC1)c(=O)n2C[C@H](OCCOC)c1cc(F)ccc1OC` [Compound I-179]?
IC90 [1, 13]: 0.4 µg/mL (≈ 0.645 µM); IC90 (Diplodia maydis (Dm); [14]): 10 µg/mL (≈ 16.1 µM); IC90 (Septoria tritici (St); [15]): > 50 µg/mL; IC90 (Botrtyis cinerea (Bc); [16]): 2 µg/mL (≈ 3.23 µM); IC90 [2, 17]: > 50 µg/mL; IC90 (Rhizoctonia solani (Rs); [18]): 10 µg/mL (≈ 16.1 µM); IC90 [3, 19]: ≥ 2 µg/mL; IC90 [4, 20]: > 2 µg/mL

What does the source list for `COc1ccc(F)cc1[C@H](Cn1c(=O)n(C(C)(C)C(=O)N2CC=CC2)c(=O)c2c(C)c(-n3cccn3)sc21)OC1CCOCC1` [Compound I-162]?
IC90 [1, 5]: 2 µg/mL (≈ 3.14 µM); IC90 (Diplodia maydis (Dm); [6]): 10 µg/mL (≈ 15.7 µM); IC90 (Septoria tritici (St); [7]): > 50 µg/mL; IC90 (Botrtyis cinerea (Bc); [8]): 10 µg/mL (≈ 15.7 µM); IC90 [2, 9]: > 50 µg/mL; IC90 (Rhizoctonia solani (Rs); [10]): 2 µg/mL (≈ 3.14 µM); IC90 [3, 11]: 2 µg/mL (≈ 3.14 µM); IC90 [4, 12]: 10 µg/mL (≈ 15.7 µM)

Which results are given for `CCO[C@@H](Cn1c(=O)n(C(C)(C)C(=O)N2CCCC2)c(=O)c2c(C)c(-n3cccn3)sc21)c1cc(F)ccc1OC` [Compound I-053]?
IC90 [1, 5]: 0.08 µg/mL (≈ 0.137 µM); IC90 (Diplodia maydis (Dm); [6]): ≥ 2 µg/mL; IC90 (Septoria tritici (St); [7]): ≥ 50 µg/mL; IC90 (Botrtyis cinerea (Bc); [8]): 0.4 µg/mL (≈ 0.685 µM); IC90 [2, 9]: > 50 µg/mL; IC90 (Rhizoctonia solani (Rs); [10]): 2 µg/mL (≈ 3.43 µM); IC90 [3, 11]: 2 µg/mL (≈ 3.43 µM); IC90 [4, 12]: 0.4 µg/mL (≈ 0.685 µM)

Which results are given for `CCc1ccc(F)cc1CCn1c(=O)n(C(C)(C)C(=O)NC(C)C)c(=O)c2c(C)c(-n3nccn3)sc21` [Compound I-326]?
IC90 [1, 13]: 0.08 µg/mL (≈ 0.152 µM); IC90 (Diplodia maydis (Dm); [14]): 2 µg/mL (≈ 3.8 µM); IC90 (Septoria tritici (St); [15]): > 50 µg/mL; IC90 (Botrtyis cinerea (Bc); [16]): 2 µg/mL (≈ 3.8 µM); IC90 [2, 17]: > 50 µg/mL; IC90 (Rhizoctonia solani (Rs); [18]): 10 µg/mL (≈ 19 µM); IC90 [3, 19]: 2 µg/mL (≈ 3.8 µM); IC90 [4, 20]: 0.08 µg/mL (≈ 0.152 µM)

With `COc1ccccc1[C@H](Cn1c(=O)n([C@H](C)C(=O)NC(C)C)c(=O)c2c(C)c(-n3cccn3)sc21)OCCC#N` [Compound I-333] as the compound, how does the IC90 [1, 13] read?
Its IC90 is 0.4 µg/mL (≈ 0.708 µM).

What about the IC90 (Diplodia maydis (Dm); [14]) of the same compound?
Its IC90 is 10 µg/mL (≈ 17.7 µM).

And the IC90 (Septoria tritici (St); [15])?
Its IC90 is over 50 µg/mL.

And the IC90 (Botrtyis cinerea (Bc); [16])?
Its IC90 is 2 µg/mL (≈ 3.54 µM).

And the IC90 [2, 17]?
Its IC90 is 50 µg/mL (≈ 88.5 µM).

What about the IC90 (Rhizoctonia solani (Rs); [18]) of the same compound?
Its IC90 is 2 µg/mL (≈ 3.54 µM).

What about the IC90 [3, 19] of the same compound?
Its IC90 is 2 µg/mL (≈ 3.54 µM).

What about the IC90 [4, 20] of the same compound?
The IC90 was 10 µg/mL (≈ 17.7 µM).
